“And” between values parts separate entries of the source, which are not always exact repeats. Identical values can stand only once.
Assays:
[1] = Biodistribution test of radioactive arsenic trioxide in rats with liver tumors (gamma counter); format: in vivo
Protocol: Hepatic Artery Injection:
The hepatic artery was dissected from the hepatic tissue of the rats by surgery. A PE-10 tube was introduced into the hepatic artery, and the test solution containing neutron-irradiated arsenic trioxide as prepared in Example 1 was injected into the hepatic artery. The PE-10 tube was removed after injection, and a surgical thread was used to bind and fix the blood vessels, followed by suturing of the wound.
The test injection solution containing neutron-irradiated arsenic trioxide as prepared in Example 1 was injected into the tail vein using a syringe with needle no. 25.
(§1) A fixed amount of radioactive arsenic trioxide (radioactivity range: 2.77˜3.25 mCi/ml, concentration: 1 mg/ml, animal injection dose: 0.45 mg/kg) prepared in Example 1 was injected into the rats with liver tumors through the hepatic artery and tail vein, respectively.
(§2) The rats were sacrificed by taking a large amount of blood from the heart at hours 2, 4, 16, 24 and 48, respectively, after injection, and the blood, hearts, lungs, livers, spleens, kidneys, intestines, bladders, muscles, and tumors were removed. These tissues or organs were placed in respective tubes, and their irradiation intensity was measured by a gamma counter (Wallac 1470 WIZARD). The content percentage of arsenic trioxide per each gram of the tissue or organ was calculated using standard curve regression. There were two or three experimented rats in each experimental group.
Some of the organs and tissues (blood, kidneys and livers) were transferred to the Institute of Nuclear Energy Research for conducting Inductively Coupled Plasma Mass Spectrometry (ICP-MAS) so as to observe the biodistribution of arsenic trioxide in the tumors and organs or tissues.

[2] = test system: N1-S1 rat hepatoma liver tumors; assay: Therapeutic effect assessment, hepatic artery single injection, rats with liver tumors; format: in vivo; conditions: for Therapeutic effect on the tumors: hepatic artery single injection
Excerpt: (§3) The tumor cells for the establishment of the animal model with liver tumor were of a rat hepatoma cell line, N1-S-1, purchased from the American Type Culture Collection (ATCC, P.O. Box 1549, Manassas, Va. 20108 USA), and were subcultured to set up a Master Cell Bank and a Working Cell Bank.
(§4) The rat hepatoma cells, N1-S1, were suspended cells that were dispersed in Iscove's Modified Dulbecco's Medium (IMDM) (GibcoBRL®) supplemented with 1% penicillin (GibcoBRL®) and 10% fetal bovine serum (GibcoBRL®), and were cultured in an incubator with 5% CO2, at 37° C.
(§5) When cultured to 1.5×10^6 cell/ml, 4×10^6 cell/0.06 ml of N1-S1 cells were sampled and then implanted into Spawn-Dawley male rats (5-week-old, 150 g) between the liver and liver capsule by surgery, and the wounds were closed by sutures. Rearing of the rats was continued for ten days, and ultrasonic scanning was used to detect any growth of liver tumor and tumor size. After scanning, animals that had developed liver tumors were used to conduct the experiments of tumor growth inhibition, and euthanasia was practiced on the rest of the rats.
The blood vessels of the hepatic artery were dissected from the hepatic tissue of the rats by surgery, and normal saline, an injection solution containing arsenic trioxide without neutron irradiation treatment (concentration: 1 mg/ml; and animal injection dosage: 0.45 mg/kg), and the injection solution prepared in Example 1 which contained radioactive arsenic trioxide having subjected to neutron irradiation treatment (radioactivity range: 2.77˜3.25 mCi/ml; concentration: 1 mg/ml; and animal injection dosage: 0.45 mg/kg dose), were injected respectively via the hepatic artery in single injections.
(§6) Before injection, the size of the liver tumors was examined by ultrasonic scanning. Ultrasonic scanning was conducted in the first week, the second week, and the fifth week, respectively, after start of the injection to observe the change in size of the tumor. Finally, the rats were sacrificed for observing whether there was metastasis.

[3] = test system: N1-S1 rat hepatoma liver tumors; assay: Therapeutic effect assessment, continuous tail vein injection, rats with liver tumors; format: in vivo; set-up: key to Response: Increase in size of tumor (In %) is classified as “Poor Response”; decrease in size of tumor within 0%-40% is classified as “Mild Response”; decrease in size of tumor to 50% or more or disappearance of tumor is classified as “Good Response.”; conditions: for Effect on the inhibition of tumor growth / Survival of the group in week 8: continuous tail vein injection; for Response / Survival time: individual rats, continuous tail vein injection 0.45 mg/kg for two weeks
Excerpt: as §3, §4, §5
The rats with liver tumors were given normal saline, an injection solution containing arsenic trioxide without neutron irradiation treatment (concentration: 1 mg/ml; animal injection dosage: 0.45 mg/kg), and the injection solution prepared in Example 1 which contained radioactive arsenic trioxide having subjected to neutron irradiation treatment (radioactivity range: 2.77˜3.25 mCi/ml; concentration: 1 mg/ml; and animal injection dosage: 0.45 mg/kg), respectively, via tail vein injection, and the injection was continued for two weeks.
as §6, with “the injection so as to observe” for “the injection to observe”

[4] = Radiation absorption dose in organs or tissues and tumors (MIRD method, MIRDOSE 3); format: in vivo, rats; conditions: for Radiation absorption dose, Lung: rats with liver tumors
Protocol: as §1, §2
Radioactive arsenic trioxide was injected respectively into the tail vein and hepatic artery of the rats by I.V. and I.H. The dosage was calculated using MIRD method, and the residence time in each of the organs and the tumors was calculated using Excel software. Finally, the radiation absorption dose in each of the organs or tissues and the tumors was calculated using MIROSE 3 software.

[5] = test system: N1-S1 rat hepatoma liver tumors; assay: Therapeutic effect assessment, liver tumor direct injection, rats with liver tumors; format: in vivo; conditions: for Response / Survival time: individual rats, liver tumor direct injection 0.45 mg/kg once every week, twice in total; for Change of tumor size 4 weeks after injection: liver tumor direct injection
Excerpt: as §3, §4, §5
The rats with liver tumors were subjected to surgery. After the locations of the liver tumors were found, the tumors were directly injected with normal saline, an injection containing arsenic trioxide without neutron irradiation treatment (concentration: 1 mg/ml; animal injection dosage: 0.45 mg/kg), and the injection prepared in Example 1 which contained radioactive arsenic trioxide having subjected to neutron irradiation treatment (radiation activity range: 2.77˜3.25 mCi/ml; concentration: 1 mg/ml of concentration; and animal injection dosage: 0.45 mg/kg), respectively, once every week, twice in total.
as §6

[6] = test system: acute promyelocytic leukemia; conditions: cited from earlier work
[7] = test system: acute promyelocytic leukemia cell lines; conditions: cited from earlier work
[8] = individual rats, hepatic artery single injection 0.45 mg/kg
[9] = individual rats, hepatic artery single injection 0.45 mg/kg, 0.45 mg/kg

Molecule: O=[76As]O[76As]=O (stereo not shown) [Radioactive arsenic trioxide, radioactive arsenic trioxide]
- Contents of radioactive arsenic trioxide in the heart, the lung, and the spleen ([1]; 0.45 mg/kg, hepatic artery and tail vein injection, hours 2-48 (FIG. 3)): 1˜3 % ID/g
- Residual contents in all the organs or tissues ([1]; 48 hours after injection, IV and IH (FIG. 3)): dropped
- Time of peak content of radioactive arsenic trioxide in the liver tumor ([1]; hepatic artery injection, 0.45 mg/kg (FIG. 2)): between hours 2 and 4
- Time after which contents in the liver tumors by the two routes reached identical equivalent values ([1]; hepatic artery vs tail vein injection (FIG. 2)): 16 h
- Contents in the bladder and urine relative to other tested organs ([1]; hour 4 after injection via hepatic artery and tail vein): second only to that in the tumor
- Therapeutic effect on the tumors [2]: complete disappearance of the tumors in some of the animals 2 weeks after injection
- Response [2, 8]: Good (decrease in size of tumor to 50% or more or disappearance of tumor is classified as “Good Response.”)
- Survival time [2, 8]: >42 days
- Tumor Size After injection Week 2 [2, 9]: Disappeared
- Tumor Size After injection Week 5 [2, 9]: Disappeared
- Effect on the inhibition of tumor growth [3]: most noticeable
- Survival of the group in week 8 [3]: all alive in week 8
- Response [3]: Good (decrease in size of tumor to 50% or more or disappearance of tumor is classified as “Good Response.”)
- Survival time [3]: >56 days
- Radiation absorption dose, Intestine ([4]; IH (hepatic artery injection)): 0.23 mGy/MBq
- Radiation absorption dose, Kidney ([4]; IH (hepatic artery injection)): 0.28 mGy/MBq
- Radiation absorption dose, Liver ([4]; IH (hepatic artery injection)): 0.21 mGy/MBq
- Radiation absorption dose, Muscle ([4]; IH (hepatic artery injection)): 0.12 mGy/MBq
- Radiation absorption dose, Spleen ([4]; IH (hepatic artery injection)): 0.95 mGy/MBq
- Radiation absorption dose, Tumor ([4]; IH (hepatic artery injection)): 21 mGy/MBq
- Radiation absorption dose, Lung ([4]; IH (hepatic artery injection)): 0.56 mGy/MBq
- Radiation absorption dose, Intestine ([4]; IV (tail vein injection)): 0.16 mGy/MBq
- Radiation absorption dose, Kidney ([4]; IV (tail vein injection)): 0.25 mGy/MBq
- Radiation absorption dose, Liver ([4]; IV (tail vein injection)): 0.13 mGy/MBq
- Radiation absorption dose, Muscle ([4]; IV (tail vein injection)): 0.06 mGy/MBq
- Radiation absorption dose, Spleen ([4]; IV (tail vein injection)): 0.76 mGy/MBq
- Radiation absorption dose, Tumor ([4]; IV (tail vein injection)): 4.26 mGy/MBq
- Radiation absorption dose, Lung ([4]; IV (tail vein injection)): 0.47 mGy/MBq
- Response [5]: Good (decrease in size of tumor to 50% or more or disappearance of tumor is classified as “Good Response.”)
- Survival time [5]: >30 days
- Change of tumor size 4 weeks after injection [5]: the tumors in all of the animals shrank in 4 weeks of injection

Molecule: arsenic trioxide [reference compound]
- Side effects (gastrointestinal disturbance, facial edema and cardiac toxicity) ([6]; low-dose, 0.08 mg/kg daily for 28 days intravenously): reduced
- complete remission rate ([6]; patients with relapsed acute promyelocytic leukemia, intravenously 0.08 mg/kg daily for 28 days): 80%
- complete remission (CR) rate ([6]; patients with relapsed acute promyelocytic leukemia, intravenously 10 mg/d): 90%
- Concentrations inducing cell differentiation ([7]; low concentrations): 0.1 to 0.5 µmol/L
- Concentrations triggering apoptosis ([7]; relatively high concentrations): 0.5 to 2 µmol/L
- Therapeutic effect on the tumors [2]: not satisfactory
- Response [2, 9]: Mild (decrease in size of tumor within 0%-40% is classified as “Mild Response”) (2×) and Poor (2×)
- Survival time [2, 9]: >42 day (2×) and 36 day and 39 day
- Effect on the inhibition of tumor growth [3]: not significant
- Survival of the group in week 8 [3]: still alive in week 8
- Response ([3]; 0.45 mg/kg): Poor (3×) and Mild (decrease in size of tumor within 0%-40% is classified as “Mild Response”) (2×)
- Survival time ([3]; 0.45 mg/kg): 14 day (2×) and 42 day and 7 day and 40 day
- Survival time [5]: >30 days
- Response ([5]; 0.45 mg/kg): Mild (decrease in size of tumor within 0%-40% is classified as “Mild Response”) and Poor and Good (decrease in size of tumor to 50% or more or disappearance of tumor is classified as “Good Response.”)
- Change of tumor size 4 weeks after injection [5]: slightly smaller than the size of the tumors 1 week after injection, while the tumors in some of the animals still grew

Reference: US7803350B2, “Radioactive arsenic-containing compounds and their uses in the treatment of tumors” (Institute of Nuclear Energy Research Rocaec, priority 2003, dated 2010)
